US5300672A (priority 1992, dated 1994)
Like-named read-outs stand apart in the source and are kept apart here.

Key:
Pseudomonas fluorescens = assay: Alternate Minimum Inhibitory Concentrations Test (Table 4), Ps.fl; type: cell-based; settings: Table 4 alternate test; for MIC: Pseudomonas fluorescens, read-out: MIC Ps.fl
Procedure: The compounds of Examples 1-8, 12-26, 28-33, 36-37, 39-42, 44-109, 111-114, and 116-120 were subjected also to the following alternate biocidal activity test procedures with the results as indicated in Table 4.
The MIC test measures the viability of Pseudomonas fluorescens inoculum in TSB when exposed for 72 hours to varying concentrations of test compound.
A 125 μl aliquot of 10,000 ppm test compound in acetone was added to 4.88 ml of TSB to provide a 250 ppm solution. From this solution, 100 μL was transferred to the first row of two microtiter plate columns. Both replicates and five additional compounds were all serially diluted 1:1 to a final concentration of 0.8 ppm in TSB.
Inoculation was accomplished by diluting a 24 hr Ps fl culture, four mls per 36 mls of phosphate buffer solution. A Dynatech autoinoculator was used to transfer 1.5 μl of this cell suspension to the microtiter plates. The plates were incubated at 30° C. for 3 days before the lowest concentration at which no growth occurs was recorded in the database.

Piricularia oryzae = assay: whole plant or invertebrate; type: in vivo; settings: Pyricularia oryzae
[1] = tested on: Pseudoperonospora cubensis; assay: whole plant or invertebrate; type: in vivo; settings: Pseudoperonospora cubensis, in Cucumis sativus, 168 h; read-out: % Control CDM
[2] = tested on: Erysiphe graminis (f. sp. tritici); assay: whole plant or invertebrate; type: in vivo; settings: Blumeria graminis; read-out: % Control WPM
[3] = tested on: Puccinia recondita (f. sp. tritici Races PKB and PLD); assay: whole plant or invertebrate; type: in vivo; settings: Puccinia recondita, 240 h; read-out: % Control WLR
Phytophthora infestans = assay: whole plant or invertebrate; type: in vivo; settings: Phytophthora infestans, in Solanum lycopersicum, 96 h
[4] = tested on: Pellicularia filamentosa (f. sp. sasiki); assay: whole plant or invertebrate; type: in vivo; settings: for pest or weed control at 200 ppm: 120 h, read-out: % Control RSB
[5] = tested on: Puccinia graminis (f. sp. tritici Race 15B-2); assay: whole plant or invertebrate; type: in vivo; settings: Puccinia graminis, 336 h, read-out: % Control WSR
[6] = 250 ppm to 0.8 ppm in TSB, 72 hours, 30° C.
[7] = read-out: % Control RB, application rate 200 ppm
[8] = read-out: % Control TLB, application rate 200 ppm

`CCCCCCCCNC(=O)/C=C\SC(=O)c1ccc(Cl)cc1Cl` [Compound 100, N-octyl-cis-3-[(2,4-dichlorobenzoyl)thio]acrylamide] gave an MIC (Pseudomonas fluorescens; [6]) greater than 250 µg/mL, a pest or weed control at 200 ppm (Piricularia oryzae; [7]) of 0% and a pest or weed control at 200 ppm [1] of 50%. It also gave a pest or weed control at 200 ppm [2] of 50%, a pest or weed control at 200 ppm [3] of 0% and a pest or weed control at 200 ppm (Phytophthora infestans; [8]) of 0%.
`CCCCCCCCNC(=O)/C=C\SC(=O)CC1CCCCC1` [Compound 94, N-octyl-cis-3-(cyclohexaneacetylthio)acrylamide] gave an MIC (Pseudomonas fluorescens; [6]) greater than 250 µg/mL, a pest or weed control at 200 ppm (Piricularia oryzae; [7]) of 90% and a pest or weed control at 200 ppm [1] of 70%. It also gave a pest or weed control at 200 ppm [2] of 85%, a pest or weed control at 200 ppm [4] of 0% and a pest or weed control at 200 ppm [3] of 50%. The pest or weed control at 200 ppm (Phytophthora infestans; read-out: % Control TLB) was 80%.
For `CCCCCCCCNC(=O)/C=C\SC(=O)CCCCCCCC(=O)OC` [Compound 117, N-octyl-cis-3-[(8-methoxycarbonyloctanoyl)thio]acrylamide], the “MIC Ps.fl (I = inactive)” value (Pseudomonas fluorescens; class symbol) was “I”, the pest or weed control at 200 ppm (Piricularia oryzae; [7]) was 0% and the pest or weed control at 50 ppm [1] was 95%. It also gave a pest or weed control at 200 ppm [2] of 0%, a pest or weed control at 200 ppm [3] of 0% and a pest or weed control at 200 ppm (Phytophthora infestans; [8]) of 0%.
`CCCCCCCCNC(=O)/C=C\SC(=O)c1cc([N+](=O)[O-])cc([N+](=O)[O-])c1` [Compound 97, N-octyl-cis-3-[(3,5-dinitrobenzoyl)thio]acrylamide] showed an MIC (Pseudomonas fluorescens; [6]) greater than 250 µg/mL, a pest or weed control at 200 ppm (Piricularia oryzae; read-out: % Control RB) of 70% and a pest or weed control at 50 ppm [1] of 0%. For the same molecule, the pest or weed control at 12 ppm [2] was 50%, the pest or weed control at 200 ppm [4] was 0% and the pest or weed control at 200 ppm [3] was 0%. For the same molecule, the pest or weed control at 200 ppm (Phytophthora infestans; read-out: % Control TLB) was 80%.
Work on `CCCCCCCCNC(=O)/C=C\SC(=O)c1ccc(Cl)c(Cl)c1` [Compound 103, N-octyl-cis-3-[(3,4-dichlorobenzoyl)thio]acrylamide] yielded an MIC (Pseudomonas fluorescens; [6]) greater than 250 µg/mL, a pest or weed control at 200 ppm (Piricularia oryzae; [7]) of 50% and a pest or weed control at 200 ppm [1] of 50%. It also gave a pest or weed control at 200 ppm [2] of 85%, a pest or weed control at 200 ppm [3] of 0% and a pest or weed control at 200 ppm (Phytophthora infestans; [8]) of 0%.
`CC/C=C/C(=O)S/C=C\C(=O)NCCCCCCCC` [Compound 84, N-octyl-cis-3-[(trans-2-pentenoyl)thio]acrylamide] was tested, and the MIC (Pseudomonas fluorescens; [6]) was greater than 250 µg/mL, the pest or weed control at 200 ppm (Piricularia oryzae; [7]) was 0% and the pest or weed control at 200 ppm [1] was 0%. The pest or weed control at 200 ppm [2] was 0%, the pest or weed control at 200 ppm [4] was 0% and the pest or weed control at 200 ppm [3] was 50%. For the same molecule, the pest or weed control at 200 ppm (Phytophthora infestans; read-out: % Control TLB) was 90%.
With `CCCCCCCCNC(=O)/C=C\SC(=O)C1CC1` [Compound 49, N-octyl-cis-3-(cyclopropanecarbonylthio)acrylamide] the MIC (Pseudomonas fluorescens; [6]) was greater than 250 µg/mL, the pest or weed control at 12 ppm (Piricularia oryzae; read-out: % Control RB, application rate 12 ppm) was 50% and the pest or weed control at 200 ppm [5] was 75%. For the same molecule, the pest or weed control at 50 ppm [1] was 99% and the pest or weed control at 100 ppm (Phytophthora infestans; read-out: % Control TLB) was 80%.
For `CCCCCCCCNC(=O)/C=C\SC(=O)CCc1ccccc1` [Compound 91, N-octyl-cis-3-[(3-phenylpropanoyl)thio]acrylamide], the “MIC Ps.fl” value (Pseudomonas fluorescens; [6]) was greater than 250 Ppm, the pest or weed control at 200 ppm (Piricularia oryzae; read-out: % Control RB) was 70% and the pest or weed control at 200 ppm [1] was 70%. The pest or weed control at 12 ppm [2] was 85%, the “% Control RSB” value ([4]; in vivo) was 0 % Control and the pest or weed control at 200 ppm [3] was 25%. The pest or weed control at 200 ppm (Phytophthora infestans; read-out: % Control TLB) was 80%.
Work on `CCCCCCCCNC(=O)/C=C\SC(=O)c1ccc(Cl)c([N+](=O)[O-])c1` [Compound 104, N-octyl-cis-3-[(3-nitro-4-chlorobenzoyl)thio]acrylamide] yielded an MIC (Pseudomonas fluorescens; [6]) greater than 250 µg/mL, a pest or weed control at 200 ppm (Piricularia oryzae; [7]) of 50% and a pest or weed control at 200 ppm [1] of 0%. The pest or weed control at 200 ppm [2] was 0%, the pest or weed control at 200 ppm [3] was 0% and the pest or weed control at 200 ppm (Phytophthora infestans; [8]) was 0%.
Work on `CCCCCCCCNC(=O)/C=C\SC(=O)c1ccc(OCCCCCCC)cc1` [Compound 45, N-octyl-cis-3-[(4-heptoxybenzoyl)thio]acrylamide] yielded an MIC (Pseudomonas fluorescens; [6]) greater than 250 µg/mL, a pest or weed control at 200 ppm (Piricularia oryzae; [7]) of 0% and a pest or weed control at 200 ppm [1] of 0%. For the same molecule, the pest or weed control at 200 ppm [2] was 0%, the pest or weed control at 200 ppm [4] was 80% and the pest or weed control at 200 ppm [3] was 0%. For the same molecule, the pest or weed control at 200 ppm (Phytophthora infestans; [8]) was 0%.
`CC(=O)S/C=C\C(=O)NC1CCCCCCCCCCC1` [Compound 90, N-cyclododecyl-cis-3-(acetylthio)acrylamide] showed an MIC (Pseudomonas fluorescens; [6]) greater than 250 µg/mL, a pest or weed control at 200 ppm (Piricularia oryzae; [7]) of 0% and a pest or weed control at 200 ppm [1] of 85%. The pest or weed control at 50 ppm [2] was 0%, the pest or weed control at 200 ppm [4] was 0% and the pest or weed control at 200 ppm [3] was 0%. For the same molecule, the pest or weed control at 200 ppm (Phytophthora infestans; [8]) was 0%.
